According to patent US20260258050A1, “IMMUNOMODULATOR” (HITGEN INC., priority 2023, published 2026):

Experiments:
Human IL-17AF = target: T1, Human IL-17AF (Homo sapiens, UniProt Q16552+Q96PD4); assay: IL-17AF ELISA (competitive ELISA, IL-17AF/IL-17Ra receptor-ligand binding); details: human IL-17AF coated plate, human IL-17Ra, read-out: IC50, inhibitory activity of compounds on human IL-17AF
T1 construct: purchased Sino Biological Inc. CT047-H08H
T1 sequence (Q16552 24-155): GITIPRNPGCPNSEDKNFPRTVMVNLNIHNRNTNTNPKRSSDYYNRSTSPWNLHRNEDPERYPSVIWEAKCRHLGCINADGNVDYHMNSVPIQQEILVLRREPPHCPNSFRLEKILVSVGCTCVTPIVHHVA
T1 sequence (Q96PD4 31-163): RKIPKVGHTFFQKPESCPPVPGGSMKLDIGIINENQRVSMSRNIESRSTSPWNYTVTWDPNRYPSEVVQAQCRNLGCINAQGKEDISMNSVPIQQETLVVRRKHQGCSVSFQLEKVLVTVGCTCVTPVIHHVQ
Outline: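 Plates coated with 0.625 μg/ml human IL-17AF in PBS pH 7.4 (37 °C, 30 min) and milk-blocked. Compounds pre-incubated with coated IL-17AF for 10 min at 25 °C, then IL-17Ra added (as 100 nM solution) for 30 min. Bound receptor detected by anti-Fc HRP/TMB at 450 nm; IC50 from variable-slope normalized fit versus DMSO control and blank.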

Human IL-17A = target: T2, Human IL-17A (Homo sapiens, UniProt Q16552); assay: Inhibition of human IL-17A protein-induced GROα/CXCL1 production in HT-29 cells; format: cell-based; parameters: purchased R&D 317-ILB; host or cells: added exogenously to HT-29 cells; details: 30 ng/mL human IL-17A protein, 48 h, GROα in supernatant by ELISA kit, read-out: Inhibitory IC50 of compounds on HT-29 cell GROα/CXCL1
T2 sequence (Q16552 20-155 limits assumed): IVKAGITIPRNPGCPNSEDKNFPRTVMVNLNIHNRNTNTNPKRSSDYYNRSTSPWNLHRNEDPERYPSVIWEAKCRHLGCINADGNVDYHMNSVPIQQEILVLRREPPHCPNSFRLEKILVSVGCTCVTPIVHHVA
Outline: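 Compound dilutions were preincubated 1 h at 37 °C with 30 ng/mL human IL-17A, then added to HT-29 cells (5×10^4/well) for 48 h at 37 °C. GROα in supernatant quantified by ELISA; IC50 for inhibition of its production. Positive control: IL-17A antibody at […].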

Which IC50 (Human IL-17AF) does the source give for `Cc1[nH]nc2c1-c1cnc(NC(=O)[C@@H](NC(=O)c3ccnn3C(C)C)C(C3CC3)C3CC3)cc1CN(CC(F)F)CC2` [compound 202] here?
The IC50 was 100 to 500 nM.

And the IC50 (Human IL-17A)?
The IC50 was ≤ 100 nM.

`Cc1[nH]nc2c1-c1cnc(NC(=O)[C@@H](NC(=O)c3conc3C(C)C)C(C3CC3)C3CC3)cc1CN(C1CC1)CC2` [compound 214] was tested. Which IC50 (Human IL-17AF) did it give?
The IC50 was ≤ 100 nM.

And the IC50 (Human IL-17A)?
The IC50 was ≤ 100 nM.

`Cc1[nH]nc2c1-c1cnc(NC(=O)[C@@H](NC(=O)c3conc3C3CC3)C(C3CC3)C3CC3)cc1CN(C1CC1)CC2` [compound 215] was tested. Which IC50 (Human IL-17AF) did it give?
Its IC50 is ≤ 100 nM.

What about the IC50 (Human IL-17A) of the same molecule?
The IC50 was ≤ 100 nM.

What does the source list for `CCc1nocc1C(=O)N[C@H](C(=O)Nc1cc2c(cn1)-c1c(n[nH]c1C)CCN(C1CC1)C2)C(C1CC1)C1CC1` [compound 216]?
IC50 (Human IL-17AF): 100 to 500 nM; IC50 (Human IL-17A): ≤ 100 nM

With `CCn1nccc1C(=O)N[C@H](C(=O)Nc1cc2c(cn1)-c1c(n[nH]c1C)CCN(C1CC1)C2)C(C1CC1)C1CC1` [compound 217] as the molecule, how does the IC50 (Human IL-17AF) read?
Its IC50 is ≤ 100 nM.

What about the IC50 (Human IL-17A) of the same molecule?
The IC50 was ≤ 100 nM.

What does the source list for `Cc1[nH]nc2c1-c1cc(F)c(NC(=O)[C@@H](NC(=O)c3ccnn3CCCF)C(C3CC3)C3CC3)cc1CN(C1CC1)CC2` [compound 218]?
IC50 (Human IL-17AF): ≤ 100 nM; IC50 (Human IL-17A): ≤ 100 nM

Which IC50 (Human IL-17AF) does the source give for `Cc1[nH]nc2c1-c1cc(F)c(NC(=O)[C@@H](NC(=O)/C(F)=C\C(C)C)C(C3CC3)C3CC3)cc1COCC2` [compound 229] here?
The IC50 was 100 to 500 nM.

What about the IC50 (Human IL-17A) of the same molecule?
The IC50 was ≤ 100 nM.

Which IC50 (Human IL-17AF) does the source give for `Cc1[nH]nc2c1-c1cc(F)c(NC(=O)[C@@H](NC(=O)/C(F)=C\C3CC3)C(C3CC3)C3CC3)cc1COCC2` [compound 230] here?
The IC50 was 100 to 500 nM.

And the IC50 (Human IL-17A)?
Its IC50 is ≤ 100 nM.

What does the source list for `Cc1[nH]nc2c1-c1cnc(NC(=O)[C@@H](NC(=O)c3conc3C(C)C)C(C3CC3)C3CC3)cc1COCC2` [compound 234]?
IC50 (Human IL-17AF): 100 to 500 nM; IC50 (Human IL-17A): 100 to 500 nM

With `Cc1[nH]nc2c1-c1cnc(NC(=O)[C@@H](NC(=O)c3ccnn3CC(F)(F)F)C(C3CC3)C3CC3)cc1COCC2` [compound 236] as the molecule, how does the IC50 (Human IL-17AF) read?
The IC50 was 100 to 500 nM.

And the IC50 (Human IL-17A)?
The IC50 was 100 to 500 nM.

How did the IC50 (Human IL-17AF) turn out when `Cc1[nH]nc2c1-c1cnc(NC(=O)[C@@H](NC(=O)c3ccnn3C3CC3)C(C3CC3)C3CC3)cc1COCC2` [compound 237] was run?
Its IC50 is 100 to 500 nM.

And the IC50 (Human IL-17A)?
The IC50 was 100 to 500 nM.

For `Cc1[nH]nc2c1-c1cnc(NC(=O)[C@@H](NC(=O)/C(F)=C\C(C)C)C(C3CC3)C3CC3)cc1COCC2` [compound 238], which IC50 (Human IL-17AF) is on record?
The IC50 was 100 to 500 nM.

What about the IC50 (Human IL-17A) of the same molecule?
The IC50 was ≤ 100 nM.

For `Cc1[nH]nc2c1-c1cnc(NC(=O)[C@@H](NC(=O)/C(F)=C\C3CC3)C(C3CC3)C3CC3)cc1COCC2` [compound 239], which IC50 (Human IL-17AF) is on record?
The IC50 was 100 to 500 nM.

What about the IC50 (Human IL-17A) of the same molecule?
The IC50 was ≤ 100 nM.

How did the IC50 (Human IL-17AF) turn out when `CCc1nocc1C(=O)N[C@H](C(=O)Nc1cc2c(cn1)-c1c(n[nH]c1C)CCOC2)C(C1CC1)C1CC1` [compound 240] was run?
The IC50 was 100 to 500 nM.

What about the IC50 (Human IL-17A) of the same molecule?
Its IC50 is 100 to 500 nM.

How did the IC50 (Human IL-17AF) turn out when `Cc1[nH]nc2c1-c1cnc(NC(=O)[C@@H](NC(=O)c3conc3C3CC3)C(C3CC3)C3CC3)cc1COCC2` [compound 241] was run?
The IC50 was 100 to 500 nM.

And the IC50 (Human IL-17A)?
Its IC50 is 100 to 500 nM.
